Test results published in ChEMBL document CHEMBL1156236, “Trypanoside, anti-tuberculosis, leishmanicidal, and cytotoxic activities of tetrahydrobenzothienopyrimidines” (Bioorg Med Chem, 2010).
pIC50: −log10 of the molar value. In brackets after ≈: the same amount, converted by molar mass.

Tests used:
[1] = Selectivity index, ratio of IC50 for BALB/c mouse macrophages to IC50 for Leishmania amazonensis MHOM/BR/76/LTB-012
MCF7 = test: Cytotoxicity against human MCF7 cells; type: functional
Trypanosoma cruzi = test: Antitrypanosomal activity against Trypanosoma cruzi tulahuen C4 trypomastigotes infected in african green monkey Vero cells assessed as CPRG cleavage after 120 hrs by microplate reader; type: functional, organism-based
[2] = Cytotoxicity against BALB/c mouse macrophages after 48 hrs by trypan blue dye exclusion method; type: cell-based; conditions: Macrophage
DU-145 = test: Cytotoxicity against human DU145 cells; type: functional
[3] = system: Mycobacterium tuberculosis; test: Antitubercular activity against Mycobacterium tuberculosis H37Rv ATCC 27294 after 7 days by microplate alamar blue assay; type: functional; conditions: H37Rv ATCC 27294, 168 h
Leishmania amazonensis [4] = test: Antileishmanial activity against Leishmania amazonensis MHOM/BR/76/LTB-012 amastigotes infected BALB/c mouse macrophages after 48 hrs by MTT assay; type: functional, organism-based; conditions: MHOM/BR/76/LTB-012, 48 h
HT-29 = test: Cytotoxicity against human HT-29 cells; type: functional
[5] = Selectivity index, ratio of IC50 for african green monkey Vero cells to IC50 for Trypanosoma cruzi tulahuen C4; conditions: Vero cells
K562 = test: Cytotoxicity against human K562 cells; type: functional
[6] = Selectivity index, ratio of IC50 for african green monkey Vero cells to MIC for Mycobacterium tuberculosis H37Rv ATCC 27294 by microplate alamar blue assay; type: functional
M14 = test: Cytotoxicity against human M14 cells; type: functional
NCI-H460 = test: Cytotoxicity against human NCI-H460 cells; type: functional
Vero = test: Cytotoxicity against african green monkey Vero cells after 72 hrs by MTS assay; conditions: Chlorocebus sabaeus, Vero, 72 h
[7] = Cytotoxicity against BALB mouse 3T3 cells; type: cell-based; conditions: BALB 3T3 cells
[8] = system: Mycobacterium tuberculosis; test: Antitubercular activity against Mycobacterium tuberculosis H37Rv ATCC 27294 after 7 days by low oxygen recovery assay; type: functional; conditions: H37Rv ATCC 27294, 168 h
Leishmania braziliensis = test: Antileishmanial activity against Leishmania braziliensis MHOM/PE/PER006 promastigote infected BALB/c mouse macrophages after 48 hrs by Giemsa staining method; type: functional, organism-based; conditions: MHOM/PE/PER006, 48 h
Leishmania peruviana = test: Antileishmanial activity against Leishmania peruviana MHOM/PE/LCA08 promastigote infected BALB/c mouse macrophages after 48 hrs by Giemsa staining method; type: functional, organism-based; conditions: MHOM/PE/LCA08, 48 h
Leishmania amazonensis [9] = test: Antileishmanial activity against Leishmania amazonensis Lma CL1 amastigotes infected BALB/c mouse macrophages after 48 hrs by Giemsa staining method; type: functional, organism-based; conditions: Lma CL1, 48 h

| Structure (SMILES) | Ratio IC50 [1] | GI50 (MCF7) | pIC50 (Trypanosoma cruzi) | pIC50 [2] | GI50 (DU-145) | MIC [3] | pIC50 (Leishmania amazonensis [4]) | GI50 (HT-29) | selectivity ratio [5] | GI50 (K562) | Ratio IC50 [6] | GI50 (M14) | GI50 (NCI-H460) | pIC50 (Vero) | GI50 [7] | MIC [8] | pIC50 (Leishmania braziliensis) | pIC50 (Leishmania peruviana) | pIC50 (Leishmania amazonensis [9]) |
| --- | --- | --- | --- | --- | --- | --- | --- | --- | --- | --- | --- | --- | --- | --- | --- | --- | --- | --- | --- |
| C(=N\Nc1ncnc2sc3c(c12)CCCC3)/c1ccccc1 | 0.6 | 11.2 µM | 4.84 | 4.55 | 20 µM | 75.9 µM (≈ 23.4 µg/mL) | 4.36 | 12.5 µM | 1.8 | 13.2 µM | 0.5 | 18 µM | 18.2 µM | 4.59 | 21.7 µM | – | – | – | – |
| CC(C)=NNc1ncnc2sc3c(c12)CCCC3 | 5.9 | 12.2 µM | 4.85 | 3.62 | 11.6 µM | 240 µM (≈ 62.4 µg/mL) | 4.39 | 33 µM | 2.7 | 13.6 µM | 0.5 | 23.3 µM | 9.3 µM | 4.42 | > 3.5 µM | – | – | – | – |
| Clc1ccccc1/C=N/Nc1ncnc2sc3c(c12)CCCC3 | 5 | 22 µM | 4.67 | 4.95 | 77.8 µM | 124 µM (≈ 42.6 µg/mL) | 5.66 | 56.5 µM | 0.7 | 19.8 µM | 0.7 | > 170 µM | 62.9 µM | 4.84 | 88.1 µM | – | – | – | – |
| C(=N\Nc1ncnc2sc3c(c12)CCCC3)/c1ccc2ccccc2c1 | 0.4 | 9.3 µM | 4.88 | 4.80 | 24.1 µM | > 250 µM | 4.41 | 19.4 µM | 1.1 | 6.2 µM | – | 35.2 µM | 20.8 µM | 4.86 | 27.9 µM | – | – | – | – |
| Brc1ccccc1/C=N/Nc1ncnc2sc3c(c12)CCCC3 | 5.8 | 4.5 µM | 5.03 | 5.13 | 7.1 µM | 24.3 µM (≈ 9.41 µg/mL) | 5.89 | 8 µM | 0.8 | 3 µM | 0.8 | 15.4 µM | 7.7 µM | 5.11 | 11.2 µM | – | – | – | – |
| C(=N\Nc1ncnc2sc3c(c12)CCCC3)/c1ccc[nH]1 | 1 | 0.4 µM | 4.64 | 5.01 | 4.6 µM | 20.8 µM (≈ 6.19 µg/mL) | 5.00 | 3.8 µM | 0.1 | 1.9 µM | 0.6 | 2.5 µM | 1.7 µM | 5.47 | 2.2 µM | – | – | – | – |
| CC(C)c1ccc(/C=N/Nc2ncnc3sc4c(c23)CCCC4)cc1 | 2.3 | 5.2 µM | 5.28 | 5.08 | 10.8 µM | > 250 µM | 5.44 | 5.9 µM | 0.5 | 4.1 µM | – | 17.8 µM | 5.9 µM | 5.54 | 9.4 µM | – | – | – | – |
| Oc1ccc(/C=N/Nc2ncnc3sc4c(c23)CCCC4)cc1 | 4.3 | 17 µM | 4.95 | 3.75 | 20.8 µM | 72.1 µM (≈ 23.4 µg/mL) | 4.38 | 19.5 µM | 1.1 | 15.8 µM | 0.6 | 17.2 µM | 14.9 µM | 4.91 | 6.6 µM | – | – | – | – |
| COc1ccc(/C=N/Nc2ncnc3sc4c(c23)CCCC4)c(OC)c1 | 4.3 | 21.1 µM | 4.73 | 3.84 | 20 µM | > 250 µM | 4.48 | 20 µM | 1.8 | 7.9 µM | – | 94.4 µM | 29.5 µM | 4.49 | 19.9 µM | – | – | – | – |
| C(=N\Nc1ncnc2sc3c(c12)CCCC3)/c1cccc2ccccc12 | 1.3 | 6.3 µM | 4.89 | 4.78 | 24.1 µM | > 250 µM | 4.90 | 6.2 µM | 0.2 | 4.7 µM | – | 18.4 µM | 19.9 µM | 5.55 | 16.7 µM | – | – | – | – |
| C(=N\Nc1ncnc2sc3c(c12)CCCC3)/c1ccc2c(c1)OCO2 | 0.6 | 117 µM | 4.64 | 4.79 | > 250 µM | > 250 µM | 4.53 | > 250 µM | 0.7 | > 250 µM | – | > 250 µM | > 250 µM | 4.77 | > 250 µM | – | – | – | – |
| CC(C)(C)c1ccc(/C=N/Nc2ncnc3sc4c(c23)CCCC4)cc1 | 3.8 | 6.3 µM | 4.95 | 5.18 | 21.9 µM | > 250 µM | 5.77 | 15.7 µM | 1.2 | 6.4 µM | – | 30.3 µM | 6.4 µM | 4.86 | 23.2 µM | – | – | – | – |
| NNc1ncnc2sc3c(c12)CCCC3 | 0.6 | 9 µM | 4.67 | 4.47 | 13.9 µM | 374 µM (≈ 82.5 µg/mL) | 4.26 | 20.7 µM | 1.9 | 11.1 µM | 0.3 | 24.6 µM | 9.6 µM | 4.39 | < 4.5 µM | – | – | – | – |
| Fc1ccccc1/C=N/Nc1ncnc2sc3c(c12)CCCC3 | 3.1 | > 250 µM | 4.97 | 4.99 | > 250 µM | > 300 µM | 5.48 | > 250 µM | 1.7 | 81.2 µM | – | > 250 µM | > 250 µM | 4.74 | > 250 µM | – | – | – | – |
| CC(C)(C)/C=N/Nc1ncnc2sc3c(c12)CCCC3 | 1.6 | 26 µM | < 4.60 | 3.76 | 25.1 µM | 299 µM (≈ 86.3 µg/mL) | 3.95 | 33 µM | – | 27.5 µM | 0.3 | 32.7 µM | 24.5 µM | – | 7.3 µM | – | – | – | – |
| Fc1ccc(/C=N/Nc2ncnc3sc4c(c23)CCCC4)cc1 | 1 | 7.4 µM | 4.74 | 5.03 | 13.9 µM | 71.1 µM (≈ 23.2 µg/mL) | 5.01 | 10.4 µM | 1 | 8.9 µM | 0.6 | 17.6 µM | 9.4 µM | 4.74 | 20.5 µM | – | – | – | – |
| C=CCOc1cc(/C=N/Nc2ncnc3sc4c(c23)CCCC4)cc(OCC=C)c1Br | 0.7 | 3.8 µM | 4.81 | 5.46 | < 2 µM | > 200 µM | 5.28 | 3.9 µM | 0.4 | 3.9 µM | – | 12.8 µM | 3.1 µM | 5.22 | < 2 µM | – | – | – | – |
| FC(F)(F)c1ccccc1/C=N/Nc1ncnc2sc3c(c12)CCCC3 | 2.6 | 4.8 µM | 4.86 | 5.51 | 3.5 µM | 15.7 µM (≈ 5.91 µg/mL) | 5.92 | 4.5 µM | 0.6 | 1.7 µM | 1.3 | 6.5 µM | 5.4 µM | 5.10 | 15.8 µM | 15.4 µM (≈ 5.8 µg/mL) | – | – | – |
| Brc1ccc(/C=N/Nc2ncnc3sc4c(c23)CCCC4)cc1 | 8.8 | 5.9 µM | 4.69 | 5.11 | 14.6 µM | > 250 µM | 6.05 | 12.4 µM | 0.8 | 5.7 µM | – | 33.6 µM | 10.5 µM | 4.81 | 17.4 µM | – | < 5.70 | < 5.70 | < 5.70 |
| COc1cccc(/C=N/Nc2ncnc3sc4c(c23)CCCC4)c1 | 0.5 | 14.9 µM | 4.77 | 4.79 | 17.7 µM | 119 µM (≈ 40.4 µg/mL) | 4.44 | 7.4 µM | 0.9 | 15.5 µM | 0.6 | 143 µM | 16.2 µM | 4.83 | 17.6 µM | – | – | – | – |
